Assay results: ChEMBL document CHEMBL2062434, “Isolation and structural elucidation of cyclic tetrapeptides from Onychocola sclerotica” (J Nat Prod, 2012)
Where a SMILES comes first, the peptide text is derived from it. [ ]: non-standard residue; d: D form. NMeF = CN[C@@H](Cc1ccccc1)C(=O)O

experiment: Inhibition of human voltage-dependent L-type calcium channel subunit alpha1C/alpha2delta/beta2a expressed in C1-6-37-3 cells assessed as inhibition of K+-induced calcium influx incubated for 30 mins prior to K+-induction by Fluo-4-AM based FLIPR assay; format: cell-based; details: not given

Structure (SMILES) | IC50 [µM]
CC[C@H](C)[C@@H]1NC(=O)[C@H](Cc2ccccc2)N(C)C(=O)[C@H](C(C)C)NC(=O)[C@H](Cc2ccccc2)N(C)C1=O (cyclo(I[NMeF]V[NMeF])) | 7.1
COc1ccc(CCN(C)CCCC(C#N)(c2ccc(OC)c(OC)c2)C(C)C)cc1OC (centres undefined) | 0.9
COc1ccc([C@@H]2Sc3ccccc3N(CCN(C)C)C(=O)[C@@H]2OC(C)=O)cc1 [DILTIAZEM] | 2.2
CC[C@H](C)[C@@H]1NC(=O)[C@H](Cc2ccccc2)N(C)C(=O)[C@H]([C@@H](C)CC)NC(=O)[C@H](Cc2ccccc2)N(C)C1=O (cyclo(I[NMeF]I[NMeF])) | 5
CC(C)[C@@H]1NC(=O)[C@H](Cc2ccccc2)N(C)C(=O)[C@H](C(C)C)NC(=O)[C@H](Cc2ccccc2)N(C)C1=O (cyclo([NMeF]V[NMeF]V)) | 6.2
CCOC(=O)C1=C(C)NC(C)=C(C(=O)OC)C1c1cccc([N+](=O)[O-])c1 (centres undefined) [NITRENDIPINE] | 0.003

experiment: Cytotoxicity against human Fa2N-4 cells after 24 hrs by MTT assay; format: cell-based; details: Fa2N-4, 24 h

Structure (SMILES) | IC50 [µM]
CC[C@H](C)[C@@H]1NC(=O)[C@H](Cc2ccccc2)N(C)C(=O)[C@H](C(C)C)NC(=O)[C@H](Cc2ccccc2)N(C)C1=O (cyclo(I[NMeF]V[NMeF])) | > 20
CC[C@H](C)[C@@H]1NC(=O)[C@H](Cc2ccccc2)N(C)C(=O)[C@H]([C@@H](C)CC)NC(=O)[C@H](Cc2ccccc2)N(C)C1=O (cyclo(I[NMeF]I[NMeF])) | > 20
CC(C)[C@@H]1NC(=O)[C@H](Cc2ccccc2)N(C)C(=O)[C@H](C(C)C)NC(=O)[C@H](Cc2ccccc2)N(C)C1=O (cyclo([NMeF]V[NMeF]V)) | > 20
